Test results from patent publication US10869871B2, “Compositions and methods of modulating short-chain dehydrogenase activity” (CASE WESTERN RESERVE UNIVERSITY, priority 2013, dated 2020).

Tests used:
Type in all cases: in vivo, mouse
[1] = test system: colon; assay: Dextran sodium sulfate (DSS) induced colitis in FVB mice; details: 22 days of study
[2] = test system: bone marrow; assay: Bone marrow analysis of C57BL/6J mice treated IP; details: IP 5 mg/kg or 20 mg/kg
Description: FIGS. […] Experimental conditions are noted on the figure.

[3] = 21 day toxicity study in FVB mice (daily weights); details: 5 mg/kg IP twice daily for 21 days
[4] = Survival of lethally irradiated mice after bone marrow transplant (30 days); details: 5 mg/kg IP bid
Description: A matched control cohort received injections with vehicle only. On day one mice received an infusion of donor marrow at doses of 100,000 cells; 200,000 cells; or 500,000 cells. […] Among mice receiving 200,000 donor cells, all control mice were dead by day 12.

[5] = Survival of 11Gy irradiated C57BL/6J mice receiving bone marrow allograft; details: 5 mg/kg IP bid
Description: The experimental design is depicted in FIG. 50.
Under the conditions of the mouse colony during this study, control mice receiving 100,000-500,000 cells are all dead between days 4-13 of study. […] Such activity would be of particular utility in settings, such as transplantation with umbilical cord stem cells, in which donor cell numbers are limited.

CCCC[S+]([O-])c1sc2nc(-c3cccs3)cc(-c3ccccc3)c2c1N (centres unmarked) [SW033291, 2-(butylsulfinyl)-4-phenyl-6-(thiophen-2-yl)thieno[2,3-b]pyridin-3-amine]
change from baseline weight versus control [1]: greater weight at all time points | percent of Sca1+/c-Kit+ lineage negative (SKL) cells [2]: unchanged | mouse weight during treatment [3]: no evidence for SW033291 reducing mouse weight | median survival versus control ([4]; 100,000 donor cells): approximate doubling of median survival | survival at 30 days ([4]; 500,000 donor cells): all survived | number of surviving mice ([5]; 1 × 10^5 donor cells, Day 0): 3 | number of surviving mice ([5]; 1 × 10^5 donor cells, Day 1): 3 | number of surviving mice ([5]; 1 × 10^5 donor cells, Day 2): 3 | number of surviving mice ([5]; 1 × 10^5 donor cells, Day 3): 3 | number of surviving mice ([5]; 1 × 10^5 donor cells, Day 4): 2 | number of surviving mice ([5]; 1 × 10^5 donor cells, Day 5): 1 | number of surviving mice ([5]; 1 × 10^5 donor cells, Day 6): 0 | number of surviving mice ([5]; 2 × 10^5 donor cells, Day 0): 3 | number of surviving mice ([5]; 2 × 10^5 donor cells, Day 1): 3 | number of surviving mice ([5]; 2 × 10^5 donor cells, Day 2): 3 | number of surviving mice ([5]; 2 × 10^5 donor cells, Day 3): 3 | number of surviving mice ([5]; 2 × 10^5 donor cells, Day 4): 3 | number of surviving mice ([5]; 2 × 10^5 donor cells, Day 5): 3 | number of surviving mice ([5]; 2 × 10^5 donor cells, Day 6): 2 | number of surviving mice ([5]; 2 × 10^5 donor cells, Day 7): 2 | number of surviving mice ([5]; 2 × 10^5 donor cells, Day 8): 2 | number of surviving mice ([5]; 2 × 10^5 donor cells, Day 9): 2 | number of surviving mice ([5]; 2 × 10^5 donor cells, Day 10): 2 | number of surviving mice ([5]; 2 × 10^5 donor cells, Day 11): 2 | number of surviving mice ([5]; 2 × 10^5 donor cells, Day 12): 1 | number of surviving mice ([5]; 2 × 10^5 donor cells, Day 13): 0 | number of surviving mice ([5]; 5 × 10^5 donor cells, Day 0): 3 | number of surviving mice ([5]; 5 × 10^5 donor cells, Day 1): 3 | number of surviving mice ([5]; 5 × 10^5 donor cells, Day 2): 3 | number of surviving mice ([5]; 5 × 10^5 donor cells, Day 3): 3 | number of surviving mice ([5]; 5 × 10^5 donor cells, Day 4): 3 | number of surviving mice ([5]; 5 × 10^5 donor cells, Day 5): 3 | number of surviving mice ([5]; 5 × 10^5 donor cells, Day 6): 3 | number of surviving mice ([5]; 5 × 10^5 donor cells, Day 7): 3 | number of surviving mice ([5]; 5 × 10^5 donor cells, Day 8): 2 | number of surviving mice ([5]; 5 × 10^5 donor cells, Day 9): 2 | number of surviving mice ([5]; 5 × 10^5 donor cells, Day 10): 2 | number of surviving mice ([5]; 5 × 10^5 donor cells, Day 11): 2 | number of surviving mice ([5]; 5 × 10^5 donor cells, Day 12): 2 | number of surviving mice ([5]; 5 × 10^5 donor cells, Day 13): 2 | number of surviving mice ([5]; 5 × 10^5 donor cells, Day 19): 2
